The subject of one series is E. coli MG1655. The note with it: MG1655, 20 h.
A further series has as its system B. subtilis PY79. To be noted: PY79, 20 h.
In series [1] the test system is A. baumannii (isolate from the human abdominal wall). The note with it: 20 h.
The test system of another series is K. pneumoniae DSM 30104. To be noted: DSM 30104, 20 h.
A further series deals with P. aeruginosa DSM 1117. The note with it: DSM 1117, 20 h.
In series [2] the test system is E. faecium (isolate from the gut of the cow). To be noted: 20 h.
The subject of the next series is S. pneumoniae D39. To be noted: D39, 20 h.
The next series in a line: in vitro. The note with it: human.
Series [3] has as its system S. aureus DSM 11729 (MRSA). To be noted: DSM 11729, 20 h.
Another series relates to E. coli. The class given is cell-based, Escherichia coli. To be noted: daily passage from cells grown at half-MIC, n=3.
Another series has as its system Escherichia coli MG1655. Briefly: Outer membrane vesicle (OMV) release after AMP treatment. It counts as cell-based. The note with it: ¼ MIC, 90 min. As for the experimental part: Escherichia coli MG1655 was grown on MacConkey agar (Carl Roth, Karlsruhe, Germany) plates overnight. For overnight culture, a single colony was used for inoculation of 2 mL LB media at 37 °C, 160 rpm (MaxQ 6000, Thermo Fisher Scientific, Karlsruhe, Germany). Bacterial culture was transferred to 10 mL fresh LB media and incubated (1 h, 37 °C, 160 rpm). The required amount of bacteria was treated with ¼ MIC of the AMPs #3, #5, #10, #13, #15, #16, and #27, left untreated for control or was treated with acetic acid and BSA as solvent control (90 min, 37 °C, 160 rpm). Samples were centrifuged (4,500 x g, 15 min, 4 °C; Multifuge X3R, Thermo Fisher Scientific), the supernatant was sterile filtered (0.22 µm) and afterwards concentrated by the factor of 20 using 100 kDa molecular weight cut-off filters (Merck KGaA, Darmstadt, Germany). To determine the number of released vesicles, samples were measured by nano-flow cytometry (nFCM) using a NanoAnalyzer (NanoFCM Co., Ltd, Nottingham, UK)[64].

≈ marks a conversion by molar mass, not a printed value. Residues, ends and D or L forms follow the SMILES beside them. No end group written: not given here.

Take “MEAFKKKPRLPLFKVKLTRFLERARGLGSYRIFEFFKKFGVKKFVSSLR-NH2 [AMP #15]”: the “E. coli MIC” value in the series on E. coli MG1655 is 25.0 µM. In the series on B. subtilis PY79, the “B. subtilis MIC” value came to 0.8 µM. The “MIC A. baumannii” value in series [1] worked out at 1.6 µM. The “MIC K. pneumoniae” value with K. pneumoniae DSM 30104 was 1.6 µM. In addition, the “MIC P. aeruginosa” value with P. aeruginosa DSM 1117 was 12.5 µM. Further, the “MIC E. faecium” value in series [2] turned out to be 1.6 µM. For the same compound, the “MIC S. pneumoniae” value against S. pneumoniae D39 was 25.0 µM. The CC50 at 24 h in “in vitro” amounted to 30.7 µM.

Compound “H-MCFCFKAGPKICRGLQRKKKKFKYQTSFTKTGFGFLTKPKSPAR-NH2 (cysteines drawn unpaired) [AMP #10]” returned a CC50 of 105 µM. The “E. coli MIC” value in the series with E. coli MG1655 is reported as 50.0 µM. For the same compound, the “B. subtilis MIC” value in the series with B. subtilis PY79 is listed as 0.6 µM.

The compound “H-MCFCRYRFFYRRRIRFFKWGPYFYVWFGFPFGRKAFFLSVFRRRFC-NH2 (cysteines drawn unpaired) [AMP #19]” showed a CC50 of over 250 µM. Besides, in the series on E. coli MG1655, the “E. coli MIC” value was 25.0 µM. Also, the “B. subtilis MIC” value with B. subtilis PY79 came to 8.4 µM.

In the case of “H-MKEKKFFFFCFKKRRGFYKRRFFCKTTCFTYCFYKPRGTKTMPYVFSE-NH2 (cysteines drawn unpaired) [AMP #14]”, the “MIC A. baumannii” value in series [1] was 25.0 µM. The “MIC P. aeruginosa” value in the series with P. aeruginosa DSM 1117 worked out at 12.5 µM. Besides, the “MIC S. aureus (MRSA)” value in [3] is 25.0 µM. Also, the “MIC E. faecium” value in series [2] stood at 6.3 µM.

As for `C[C@@H](O)[C@H]1C(=O)N2C(C(=O)O)=C(SCCN=CN)C[C@H]12` [imipenem], the “increase in MIC during 21 days of serial passage” value with E. coli was “up to 8 fold”.

As for `CC[C@H](C)[C@H](NC(=O)CNC(=O)[C@@H](N)CCSC)C(=O)NCC(=O)N[C@@H](CCCCN)C(=O)N[C@@H](Cc1ccccc1)C(=O)N[C@@H](CCC(N)=O)C(=O)N[C@@H](CCCCN)C(=O)N[C@@H](CCSC)C(=O)N[C@@H](CCCNC(=N)N)C(=O)N[C@@H](Cc1ccccc1)C(=O)N[C@H](C(=O)NCC(=O)N[C@@H](C)C(=O)N[C@H](C(=O)N[C@@H](CCCNC(=N)N)C(=O)N[C@@H](C)C(=O)N[C@@H](CO)C(=O)N[C@@H](CCCCN)C(=O)NCC(=O)N[C@H](C(=O)N[C@@H](C)C(=O)N[C@@H](CCCCN)C(=O)NCC(=O)N[C@@H](CC(C)C)C(=O)N[C@@H](CC(C)C)C(=O)N[C@@H](CCCNC(=N)N)C(=O)N[C@H](C(=O)N[C@@H](C)C(=O)N[C@@H](C)C(=O)N[C@H](C(=O)N[C@@H](CCCNC(=N)N)C(=O)N[C@H](C(=O)NCC(=O)N[C@@H](CCCNC(=N)N)C(=O)N[C@@H](CCCNC(=N)N)C(=O)N[C@@H](C)C(=O)N[C@@H](CC(C)C)C(=O)N[C@H](C(=O)N[C@H](C(N)=O)[C@@H](C)O)[C@@H](C)O)[C@@H](C)O)[C@@H](C)CC)[C@@H](C)CC)C(C)C)[C@@H](C)CC)[C@@H](C)CC` [AMP #21] (H-MGIGKFQKMRFIGAIRASKGVAKGLLRIAAIRTGRRALTT-NH2), the “E. coli MIC” value with E. coli MG1655 was found to be 10.4 µM. For the same compound, the “B. subtilis MIC” value in the series on B. subtilis PY79 came to 0.5 µM. For the same compound, the “MIC A. baumannii” value in [1] is 0.8 µM (≈ 3.45 µg/mL). The “MIC K. pneumoniae” value in the series with K. pneumoniae DSM 30104 was found to be 25.0 µM (≈ 108 µg/mL). For the same compound, the “MIC P. aeruginosa” value against P. aeruginosa DSM 1117 turned out to be 12.5 µM (≈ 53.9 µg/mL). For the same compound, in [2], the “MIC E. faecium” value is 6.3 µM (≈ 27.2 µg/mL). In the series “in vitro”, this compound returned a CC50 at 24 h of over 250 µM.

For “MKQPSKTKTHFKYFLLFLKSVKKVAGFKKKKKKYHWRSYKEGSCFRKRT-NH2 [AMP #13]”, in the series with E. coli MG1655, the “E. coli MIC” value was 25.0 µM. Also, the “B. subtilis MIC” value in the series with B. subtilis PY79 is listed as 1.6 µM. In addition, the “MIC A. baumannii” value in [1] was determined as 3.1 µM. Besides, in the series on K. pneumoniae DSM 30104, the “MIC K. pneumoniae” value was determined as 6.3 µM. The “MIC P. aeruginosa” value against P. aeruginosa DSM 1117 amounted to 12.5 µM. The “MIC E. faecium” value in series [2] is 1.6 µM. The “MIC S. pneumoniae” value with S. pneumoniae D39 is 12.5 µM. In “in vitro”, the CC50 at 24 h was found to be 25.8 µM.

Consider “MRRKTPVKWKTFFKALKHKKKIFKKTFEKFKFLAKGPAFLKGFDQKLKS-NH2 [AMP #5]”, for which the “E. coli MIC” value with E. coli MG1655 came out at 2.1 µM. In the series on B. subtilis PY79, the “B. subtilis MIC” value is recorded as 0.5 µM. Further, in [1], the “MIC A. baumannii” value worked out at 1.0 µM. Further, the “MIC K. pneumoniae” value with K. pneumoniae DSM 30104 was 0.8 µM. Besides, the “MIC P. aeruginosa” value in the series with P. aeruginosa DSM 1117 turned out to be 3.1 µM. Besides, the “MIC E. faecium” value in series [2] amounted to 1.6 µM. Further, the “MIC S. pneumoniae” value against S. pneumoniae D39 worked out at 25.0 µM. In addition, the CC50 at 24 h in “in vitro” worked out at 68.4 µM.

The compound “H-MCFFPRRKSKVKVKGGLCRLLFIFFKTTFCFKAKTKKEIKKGTGKKIVR-NH2 (cysteines drawn unpaired) [AMP #18]” registered a CC50 of 153 µM. Moreover, the “E. coli MIC” value in the series on E. coli MG1655 was determined as 50.0 µM. In the series on B. subtilis PY79, the “B. subtilis MIC” value came to 3.1 µM.

As for “MYLKKFLALKNSLKKLSPFKCAVKSWLKKCAEVTFYSKLLGRRGKKDGN-NH2 (cysteines drawn unpaired) [AMP #6]”, the “E. coli MIC” value with E. coli MG1655 was determined as 25.0 µM. Also, in the series on B. subtilis PY79, the “B. subtilis MIC” value is reported as 2.1 µM. Moreover, in series [1], the “MIC A. baumannii” value was 6.3 µM. Also, the “MIC K. pneumoniae” value with K. pneumoniae DSM 30104 turned out to be 12.5 µM. In addition, the “MIC P. aeruginosa” value against P. aeruginosa DSM 1117 stood at 25.0 µM. Also, the “MIC E. faecium” value in series [2] stood at 6.3 µM. In the series “in vitro”, the CC50 at 24 h came to 67.5 µM.

For the compound polymyxin B, the “release of outer membrane vesicles (OMV) compared to untreated E. coli” value in the series on Escherichia coli MG1655 is on record as “only significantly different group”.

The values above are taken from publication PMC10632401, “Cell-free biosynthesis combined with deep learning accelerates de novo-development of antimicrobial peptides” (Nature Communications, 2023).
